Results on one compound are retold here after patent US20020142347A1, “Biosensor” (BIOSENSOR ApS, priority 2000, published 2002).

One test deals with T1, FACI53 (Bos taurus, UniProt P07107, A54C).
T1 construct: badan (6-bromoacetyl-2-dimethylaminonaphthalene) fluorophore on the introduced Cys-53; made in house; host or cells: E. coli BL21(DE3)pLysS, pET3a vector
T1 sequence (P07107 2-87 A54C): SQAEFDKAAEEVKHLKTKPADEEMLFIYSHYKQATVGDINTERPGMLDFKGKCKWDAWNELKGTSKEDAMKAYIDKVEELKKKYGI
Description: Isoelectrical focusing of acyl-CoA binding to FACI53. Details: species or system bovine. The following applies: ligand in four-fold molar excess over protein. As for the experimental part:
All the gels were prepared with ligands (1-7) in four-fold molar excess over protein. […] The protein-ligand complex shifted to a pl around 3.8. Legend: 1: Water, 2: CoA-SH, 3: C4-CoA, 4: C8-CoA, 5: C12-CoA, 6: C16-CoA, 7: C20-CoA, 8: Broad pl Calibration Kit (pH 3-10).
Quantitative determination of binding affinities (KD) were performed by isothermal titration micro calorimetry as previously described (Faergeman et. al., 1996; Biochemistry 35, 14118-14126). Qualitative evaluation of relative binding affinities were determined by isoelectrical focusing using the Pharmacia Fast Gel system according to the prescriptions given by the manufacture. Fluorescence emission changes induced by acyl-CoA binding to badan modified protein were determined as follows: 5 μl portions of acyl-CoAs were added from stock solutions disolved in binding buffer, (10 mM Hepes, 150 mM NaCL, 1 mM NaHPO4, pH 7.4) containing 3.4 μM Badan derivatized protein to a 1 ml 3.4 μM solution of the Badan derivatized ACBP in the same buffer. The fluorescence emission was measured on a SPEX FLOUROLOG (Industries Inc, Edison N.J., USA) with excitation at 400 nm and emission scan from 400 nm to 550 nm. […]

The target of a further test is T2, native bovine ACBP (Bos taurus, UniProt P07107).
T2 sequence (P07107 1-87): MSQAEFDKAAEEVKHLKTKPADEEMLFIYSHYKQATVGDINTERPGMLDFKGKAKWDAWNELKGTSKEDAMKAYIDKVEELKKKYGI
The following applies: isothermal titration microcalorimetry, >0.1 M salt; literature; read-out: KD for binding to native bovine ACBP; cited from earlier work. In general terms: ITC needs no label: the signal is the heat of the interaction.

The next test addresses T3, FACI-24 (Bos taurus, UniProt P07107, M25C).
T3 construct: made in house; host or cells: E. coli BL21(DE3)pLysS, pET3a vector
T3 sequence (P07107 2-87 M25C): T1 sequence (P07107 2-87 A54C) with M24C, C53A
The test is described as follows: Fluorescence emission change of FACI-24 on titration with CoA and acyl-CoA esters. The format is binding, bovine.

Where a chain is given by its changes, count along the chain named.

What is called Kd is the equilibrium constant for the complex coming apart. Turning to `CCCCCCCCCCCCCCCC(=O)SCCNC(=O)CCNC(=O)[C@H](O)C(C)(C)COP(=O)(O)OP(=O)(O)OC[C@H]1O[C@@H](n2cnc3c(N)ncnc32)[C@H](O)[C@@H]1OP(=O)(O)O` [C16:0-CoA, palmitoyl-CoA], the “Binding to FACI53 by isoelectrical focusing” value at FACI53 is listed as “shown to bind”. For the same compound, the Kd on native bovine ACBP is 2 nM. Besides, the “Fold increase in emission of FACI-24 at 464 nm” value on FACI-24 (emission at 464 nm) was 5,5 fold. The “Downshift in emission maximum of FACI-24” value on FACI-24 (emission maximum without ligand 510 nm, excitation 400 nm) came to 46 nm.
